How the values were obtained:
μ-opioid receptor = μ-opioid receptor (Homo sapiens (Human), UniProt P35372); test: μ-opioid receptor [35S]GTPγS functional assay, U-2 OS cells; format: biochemical; settings: for Emax: relative to DAMGO, U-2 OS cells
Procedure: μ-Opioid Receptor Functional Assay Procedures: [^35S]GTPγS functional assays were conducted using freshly thawed μ-receptor membranes prepared in-house from a cell line expressing recombinant μ opioid receptor in a HEK-293, CHO or U-2 OS cell background, or purchased from a commercial source (Perkin Elmer, Shelton, Conn.; or DiscovRx, Fremont, Calif.). Assay reactions were prepared by sequentially adding the following reagents to binding buffer (100 mM NaCl, 10 mM MgCl2, 20 mM HEPES, pH 7.4) on ice (final concentrations indicated): membrane protein (0.026 mg/mL), saponin ([…]), GDP ([…]) and [^35S]GTPγS (0.20 nM; Perkin Elmer, Shelton, Conn.). The prepared membrane solution (190 μl/well) was transferred to 96-shallow well polypropylene plates containing 10 μl of 20× concentrated stock solutions of the agonist [D-Ala^2, N-methyl-Phe^4 Gly-ol^5]-enkephalin (DAMGO) prepared in dimethyl sulfoxide (DMSO). Plates were incubated for 30 min at about 25° C. with shaking. Reactions were terminated by rapid filtration onto 96-well Unifilter GF/B filter plates (Perkin Elmer, Shelton, Conn.) using a 96-well tissue harvester (Perkin Elmer, Shelton, Conn.) followed by three filtration washes with 200 μl of ice-cold wash buffer (10 mM NaH2PO4, 10 mM Na2HPO4, pH 7.4). Filter plates were subsequently dried at 50° C. for 2-3 hours. BetaScint scintillation cocktail (Perkin Elmer, Shelton, Conn.) was added (50 μl/well) and plates were counted using a Packard Top-Count for 1 min/well. Data were analyzed using the sigmoidal dose-response curve fitting functions in GraphPad PRISM v. 3.0, or an in-house function for non-linear, sigmoidal dose-response curve-fitting.
μ-Opioid Receptor Functional Data: μ GTP EC50 is the concentration of a compound providing 50% of the maximal response for the compound at a μ-opioid receptor.
μ GTP Emax (%) is the maximal effect elicited by a compound relative to the effect elicited by DAMGO, a standard μ agonist. Generally, the μ GTP Emax (%) value measures the efficacy of a compound to treat or prevent pain or other Conditions.
(§1) The following TABLE 3 provides results on the activity response of certain Compounds of the Invention at the μ- and κ-opioid receptors determined as described above using U-2 OS cells.

κ opioid receptor = κ opioid receptor (Homo sapiens (Human), UniProt P41145); test: κ-opioid receptor [35S]GTPγS functional assay, U-2 OS cells; format: biochemical; settings: for Emax: relative to U69,593, U-2 OS cells
Procedure: κ-Opioid Receptor Functional Assay Procedures: Functional [^35S]GTPγS binding assays were conducted as follows. κ opioid receptor membrane solution was prepared by sequentially adding final concentrations of 0.026 μg/μl κ membrane protein (in-house), 10 μg/mL saponin, 3 μM GDP and 0.20 nM [^35S]GTPγS to binding buffer (100 mM NaCl, 10 mM MgCl2, 20 mM HEPES, pH 7.4) on ice. The prepared membrane solution (190 μl/well) was transferred to 96-shallow well polypropylene plates containing 10 μl of 20× concentrated stock solutions of agonist prepared in DMSO. Plates were incubated for 30 min at a temperature of about 25° C. with shaking. Reactions were terminated by rapid filtration onto 96-well Unifilter GF/B filter plates (Perkin Elmer, Shelton, Conn.) using a 96-well tissue harvester (Packard) and followed by three filtration washes with 200 μl ice-cold binding buffer (10 mM NaH2PO4, 10 mM Na2HPO4, pH 7.4). Filter plates were subsequently dried at 50° C. for 2-3 hours. Fifty μl/well scintillation cocktail (Perkin Elmer, Shelton, Conn.) was added and plates were counted in a Packard Top-Count for 1 min/well.
κ-Opioid Receptor Functional Data: κ GTP EC50 is the concentration of a compound providing 50% of the maximal response for the compound at a κ receptor.
κ GTP Emax (%) is the maximal effect elicited by a compound relative to the effect elicited by U69,593.
as §1

SMILES | EC50 (μ-opioid receptor) | Emax (μ-opioid receptor) | EC50 (κ opioid receptor) | Emax (κ opioid receptor)
O=C1NC(=O)[C@@]2(CC[C@@]3(O)[C@H]4Cc5ccc(O)cc5[C@@]3(CCN4CCF)C2)N1 [Compound 30] | 102 ± 30.2 nM | 56.7 ± 4.33% | 38.2 ± 12 nM | 99.7 ± 1.67%
CCN1C(=O)N[C@]2(CC[C@@]3(O)[C@H]4Cc5ccc(O)cc5[C@@]3(CCN4CC)C2)C1=O [Compound 31, (4bR,4′S,8aS,9R)-1′,11-diethyl-3,8a-dihydroxy-5,7,8,8a,9,10-hexahydrospiro[9,4b-(epiminoethano)phenanthrene-6,4′-imidazolidine]-2′,5′-dione] | 1510 ± 309 nM | 88.9 ± 0.94% | 445 ± 197 nM | 102 ± 4.48%
O=C1NC(=O)[C@@]2(CC[C@@]3(O)[C@H]4Cc5ccc(O)cc5[C@@]3(CCN4CC(F)(F)F)C2)N1 [Compound 32, (4bR,4′S,8aS,9R)-3,8a-dihydroxy-11-(2,2,2-trifluoroethyl)-5,7,8,8a,9,10-hexahydrospiro[9,4b-(epiminoethano)phenanthrene-6,4′-imidazolidine]-2′,5′-dione] | > 20000 nM | 1.5% | 523 ± 180 nM | 104 ± 1.2%
O=C1NC(=O)[C@@]2(CC[C@@]3(O)[C@H]4Cc5ccc(O)cc5[C@@]3(CCN4CCC(F)(F)F)C2)N1 [Compound 33, (4bR,4′S,8aS,9R)-3,8a-dihydroxy-11-(3,3,3-trifluoropropyl)-5,7,8,8a,9,10-hexahydrospiro[9,4b-(epiminoethano)phenanthrene-6,4′-imidazolidine]-2′,5′-dione] | 272 ± 18 nM | 39.7 ± 1.86% | 393 ± 13.5 nM | 98.3 ± 1.45%
O=C1NC(=O)[C@@]2(CC[C@@]3(O)[C@H]4Cc5ccc(O)cc5[C@@]3(CCN4CCCC(F)(F)F)C2)N1 [Compound 34, (4bR,4′S,8aS,9R)-3,8a-dihydroxy-11-(4,4,4-trifluorobutyl)-5,7,8,8a,9,10-hexahydrospiro[9,4b-(epiminoethano)phenanthrene-6,4′-imidazolidine]-2′,5′-dione] | 869 ± 131 nM | 47 ± 2.08% | 2240 ± 120 nM | 87.7 ± 3.28%
O=C1NC(=O)[C@@]2(CC[C@@]3(O)[C@H]4Cc5ccc(O)cc5[C@@]3(CCN4CCc3ccccc3)C2)N1 [Compound 35, (4bR,4′S,8aS,9R)-3,8a-dihydroxy-11-phenethyl-5,7,8,8a,9,10-hexahydrospiro[9,4b-(epiminoethano)phenanthrene-6,4′-imidazolidine]-2′,5′-dione] | 1.23 ± 0.093 nM | 104 ± 3.51% | 270 ± 44.1 nM | 84 ± 1.53%
O=C1NC(=O)[C@@]2(CC[C@@]3(O)[C@H]4Cc5ccc(O)cc5[C@@]3(CCN4CCCc3ccccc3)C2)N1 [Compound 36, (4bR,4′S,8aS,9R)-3,8a-dihydroxy-11-(3-phenylpropyl)-5,7,8,8a,9,10-hexahydrospiro[9,4b-(epiminoethano)phenanthrene-6,4′-imidazolidine]-2′,5′-dione] | 442 ± 21.2 nM | 77.7 ± 3.53% | 2500 ± 277 nM | 84.3 ± 2.6%
C=C(C)CCN1CC[C@]23C[C@]4(CC[C@@]2(O)[C@H]1Cc1ccc(O)cc13)NC(=O)NC4=O [Compound 37, (4bR,4′S,8aS,9R)-3,8a-dihydroxy-11-(3-methylbut-3-en-1-yl)-5,7,8,8a,9,10-hexahydrospiro[9,4b-(epiminoethano)phenanthrene-6,4′-imidazolidine]-2′,5′-dione] | 18.7 ± 2.53 nM | 92 ± 5% | 33.5 ± 9.67 nM | 101 ± 1.76%
O=C1NC(=O)[C@@]2(CC[C@@]3(O)[C@H]4Cc5ccc(O)cc5[C@@]3(CCN4CC(F)F)C2)N1 [Compound 38, (4bR,4′S,8aS,9R)-11-(2,2-difluoroethyl)-3,8a-dihydroxy-5,7,8,8a,9,10-hexahydrospiro[9,4b-(epiminoethano)phenanthrene-6,4′-imidazolidine]-2′,5′-dione] | > 20000 nM | 12 ± 1% | 441 ± 144 nM | 99 ± 3.51%
CCN1C(=O)N[C@]2(CC[C@@]3(O)[C@H]4Cc5ccc(O)cc5[C@@]3(CCN4CC3CC3)C2)C1=O [Compound 45, (4S,4b′R,8a′S,9′R)-11′-(cyclopropylmethyl)-1-ethyl-3′,8a′-dihydroxy-8′,8a′,9′,10′-tetrahydro-5′H,7′H-spiro[imidazolidine-4,6′-[9,4b](epiminoethano)phenantrene]-2,5-dione] | 6.47 ± 0.69 nM | 45.9 ± 3.04% | 4.34 ± 0.74 nM | 96.3 ± 1.33%
CCN1C(=O)N(CC)[C@]2(CC[C@@]3(O)[C@H]4Cc5ccc(O)cc5[C@@]3(CCN4CC3CC3)C2)C1=O [Compound 46, (4S,4b′R,8a′S,9′R)-11′-(cyclopropylmethyl)-1,3-diethyl-3′,8a′-dihydroxy-8′,8a′,9′,10′-tetrahydro-5′H,7′H-spiro[imidazolidine-4,6′-[9,4b](epiminoethano)phenantrene]-2,5-dione] | 1.74 ± 0.22 nM | 10.7 ± 0.33% | 1.57 ± 0.19 nM | 96.7 ± 3.67%
O=C1N[C@]2(CC[C@@]3(O)[C@H]4Cc5ccc(O)cc5[C@@]3(CCN4CC3CC3)C2)C(=O)N1Cc1ccc(O)cc1 [Compound 47, (4S,4b′R,8a′S,9′R)-11′-(cyclopropylmethyl)-3′,8a′-dihydroxy-1-(4-hydroxybenzyl)-8′,8a′,9′,10′-tetrahydro-5′H,7′H-spiro[imidazolidine-4,6′-[9,4b](epiminoethano)-phenantrene]-2,5-dione] | 4.66 ± 0.89 nM | 49 ± 1.53% | 1.21 ± 0.11 nM | 104 ± 3.67%
CCN1C(=O)N(Cc2ccc(O)cc2)C(=O)[C@@]12CC[C@@]1(O)[C@H]3Cc4ccc(O)cc4[C@@]1(CCN3CC1CC1)C2 [Compound 48, (4S,4b′R,8a′S,9′R)-11′-(cyclopropylmethyl)-3-ethyl-3′,8a′-dihydroxy-1-(4-hydroxybenzyl)-8′,8a′,9′,10′-tetrahydro-5′H,7′H-spiro[imidazolidin-4,6′-[9,4b](epiminoethano)-phenantrene]-2,5-dione] | 0.82 ± 0.093 nM | 12 ± 0.58% | 2.61 ± 0.3 nM | 105 ± 1.2%
CCN1C(=O)N[C@]2(CC[C@@]3(O)[C@H]4Cc5ccc(O)cc5[C@@]3(CCN4C)C2)C1=O [Compound 61, (4S,4b′R,8a′S,9′R)-1-ethyl-3′,8a′-dihydroxy-11′-methyl-8′,8a′,9′,10′-tetrahydro-5′H,7′H-spiro[imidazolidine-4,6′-[9,4b](epiminoethano)phenantrene]-2,5-dione] | 39.1 ± 4.82 nM | 103.3 ± 0.88% | 2480 ± 249 nM | 109 ± 6.06%
CCN1C(=O)N(CC)[C@]2(CC[C@@]3(O)[C@H]4Cc5ccc(O)cc5[C@@]3(CCN4C)C2)C1=O [Compound 62, (4S,4b′R,8a′S,9′R)-1,3-diethyl-3′,8a′-dihydroxy-11′-methyl-8′,8a′,9′,10′-tetrahydro-5′H,7′H-spiro[imidazolidine-4,6′-[9,4b](epiminoethano)phenantrene]-2,5-dione] | 75.2 ± 3.36 nM | 78 ± 0.58% | 711 ± 37.8 nM | 108 ± 2.52%
O=C1NC(=O)[C@@]2(CC[C@@]3(O)[C@H]4Cc5ccc(O)cc5[C@@]3(CCN4CC3CC3)C2)N1CC(F)(F)F [Compound 64, (4S,4b′R,8a′S,9′R)-11′-(cyclopropylmethyl)-3′,8a′-dihydroxy-3-(2,2,2-trifluoroethyl)-8′,8a′,9′,10′-tetrahydro-5′H,7′H-spiro[imidazolidine-4,6′-[9,4b](epiminoethano)-phenantrene]-2,5-dione] | 2.76 ± 0.5 nM | 14 ± 0.58% | 22.2 ± 1.46 nM | 106 ± 2.85%
